Measured values as given in ChEMBL document CHEMBL5696441 (Nat Chem Biol, 2011).

Tests used:
[1] = target: Calcium/calmodulin-dependent protein kinase type II subunit gamma (Homo sapiens) (UniProt Q13555); assay: Inhibition of CAMK2G (unknown origin) assessed as remaining activity at 1 uM by Kinome scan method relative to control
[2] = target: Dual specificity protein kinase CLK4 (Homo sapiens) (UniProt Q9HAZ1); assay: Inhibition of CLK4 (unknown origin) assessed as remaining activity at 1 uM by Kinome scan method relative to control
[3] = test system: Epidermal growth factor receptor (Homo sapiens), P00533 [UNDEFINED MUTATION]; assay: Inhibition of EGFR L747-T751del/Sins mutant (unknown origin) assessed as remaining activity at 1 uM by Kinome scan method relative to control
Epidermal growth factor receptor (Homo sapiens), P00533 [UNDEFINED MUTATION], sequence (P00533 whole entry, looked up, stated change not applied): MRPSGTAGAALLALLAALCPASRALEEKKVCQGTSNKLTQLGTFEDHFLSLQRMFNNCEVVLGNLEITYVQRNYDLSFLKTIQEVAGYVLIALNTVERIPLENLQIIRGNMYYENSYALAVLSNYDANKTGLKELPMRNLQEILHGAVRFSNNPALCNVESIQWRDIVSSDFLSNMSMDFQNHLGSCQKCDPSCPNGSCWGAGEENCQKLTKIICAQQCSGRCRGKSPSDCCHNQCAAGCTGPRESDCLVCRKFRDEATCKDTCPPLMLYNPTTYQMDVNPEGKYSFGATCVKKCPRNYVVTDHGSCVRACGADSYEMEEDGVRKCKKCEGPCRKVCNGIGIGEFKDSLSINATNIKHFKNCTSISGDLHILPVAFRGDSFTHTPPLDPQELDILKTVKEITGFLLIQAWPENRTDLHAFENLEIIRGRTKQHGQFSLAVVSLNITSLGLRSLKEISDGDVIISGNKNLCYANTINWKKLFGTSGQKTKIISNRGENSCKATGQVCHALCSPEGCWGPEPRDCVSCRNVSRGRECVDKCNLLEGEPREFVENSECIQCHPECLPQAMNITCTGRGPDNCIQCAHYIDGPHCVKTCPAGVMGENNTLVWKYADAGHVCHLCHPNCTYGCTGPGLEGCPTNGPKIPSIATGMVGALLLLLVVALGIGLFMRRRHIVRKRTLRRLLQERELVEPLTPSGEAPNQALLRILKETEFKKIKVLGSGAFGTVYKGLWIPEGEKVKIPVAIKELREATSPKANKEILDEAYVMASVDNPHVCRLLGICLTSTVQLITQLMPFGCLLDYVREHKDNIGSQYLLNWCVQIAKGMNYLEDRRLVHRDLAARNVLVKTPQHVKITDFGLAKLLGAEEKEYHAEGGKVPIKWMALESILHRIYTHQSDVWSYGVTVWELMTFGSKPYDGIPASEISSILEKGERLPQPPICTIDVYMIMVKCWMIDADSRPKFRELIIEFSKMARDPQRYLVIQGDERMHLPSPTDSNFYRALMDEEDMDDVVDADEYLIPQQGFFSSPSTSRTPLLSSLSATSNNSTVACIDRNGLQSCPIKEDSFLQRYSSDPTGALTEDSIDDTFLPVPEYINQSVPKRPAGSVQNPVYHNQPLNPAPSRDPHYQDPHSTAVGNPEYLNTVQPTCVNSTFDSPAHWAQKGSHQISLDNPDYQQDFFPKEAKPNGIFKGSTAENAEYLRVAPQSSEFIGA

[4] = target: Ephrin type-A receptor 7 (Homo sapiens) (UniProt Q15375); assay: Inhibition of EPHA7 (unknown origin) assessed as remaining activity at 1 uM by Kinome scan method relative to control
Ephrin type-A receptor 7 (Homo sapiens), sequence (Q15375 28-998 limits assumed): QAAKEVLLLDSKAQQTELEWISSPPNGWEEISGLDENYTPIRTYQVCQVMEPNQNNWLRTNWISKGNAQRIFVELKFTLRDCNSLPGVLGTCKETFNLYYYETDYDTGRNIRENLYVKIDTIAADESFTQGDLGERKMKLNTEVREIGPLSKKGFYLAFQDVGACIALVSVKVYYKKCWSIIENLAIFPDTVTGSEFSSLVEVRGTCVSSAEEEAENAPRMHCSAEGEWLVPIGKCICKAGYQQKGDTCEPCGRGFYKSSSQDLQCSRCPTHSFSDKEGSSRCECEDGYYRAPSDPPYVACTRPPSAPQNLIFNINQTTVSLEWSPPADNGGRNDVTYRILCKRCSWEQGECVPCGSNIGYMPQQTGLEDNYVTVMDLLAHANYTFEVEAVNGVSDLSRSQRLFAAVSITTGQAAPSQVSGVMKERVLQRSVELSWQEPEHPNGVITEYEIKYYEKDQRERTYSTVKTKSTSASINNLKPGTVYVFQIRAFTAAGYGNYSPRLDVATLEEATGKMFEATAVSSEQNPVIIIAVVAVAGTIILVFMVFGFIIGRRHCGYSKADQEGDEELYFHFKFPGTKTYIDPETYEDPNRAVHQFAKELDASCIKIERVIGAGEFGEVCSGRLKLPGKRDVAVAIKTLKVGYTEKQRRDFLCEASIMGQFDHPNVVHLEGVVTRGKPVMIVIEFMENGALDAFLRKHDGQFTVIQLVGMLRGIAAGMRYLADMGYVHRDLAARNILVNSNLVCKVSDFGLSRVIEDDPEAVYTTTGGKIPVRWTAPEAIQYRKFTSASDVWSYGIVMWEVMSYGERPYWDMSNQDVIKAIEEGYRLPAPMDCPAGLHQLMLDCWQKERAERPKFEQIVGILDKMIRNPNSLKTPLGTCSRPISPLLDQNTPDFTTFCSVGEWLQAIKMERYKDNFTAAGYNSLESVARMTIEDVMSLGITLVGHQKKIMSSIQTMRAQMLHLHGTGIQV

[5] = target: Fibroblast growth factor receptor 4 (Homo sapiens) (UniProt P22455); assay: Inhibition of FGFR4 (unknown origin) assessed as remaining activity at 1 uM by Kinome scan method relative to control
Fibroblast growth factor receptor 4 (Homo sapiens), sequence (P22455 22-802 limits assumed): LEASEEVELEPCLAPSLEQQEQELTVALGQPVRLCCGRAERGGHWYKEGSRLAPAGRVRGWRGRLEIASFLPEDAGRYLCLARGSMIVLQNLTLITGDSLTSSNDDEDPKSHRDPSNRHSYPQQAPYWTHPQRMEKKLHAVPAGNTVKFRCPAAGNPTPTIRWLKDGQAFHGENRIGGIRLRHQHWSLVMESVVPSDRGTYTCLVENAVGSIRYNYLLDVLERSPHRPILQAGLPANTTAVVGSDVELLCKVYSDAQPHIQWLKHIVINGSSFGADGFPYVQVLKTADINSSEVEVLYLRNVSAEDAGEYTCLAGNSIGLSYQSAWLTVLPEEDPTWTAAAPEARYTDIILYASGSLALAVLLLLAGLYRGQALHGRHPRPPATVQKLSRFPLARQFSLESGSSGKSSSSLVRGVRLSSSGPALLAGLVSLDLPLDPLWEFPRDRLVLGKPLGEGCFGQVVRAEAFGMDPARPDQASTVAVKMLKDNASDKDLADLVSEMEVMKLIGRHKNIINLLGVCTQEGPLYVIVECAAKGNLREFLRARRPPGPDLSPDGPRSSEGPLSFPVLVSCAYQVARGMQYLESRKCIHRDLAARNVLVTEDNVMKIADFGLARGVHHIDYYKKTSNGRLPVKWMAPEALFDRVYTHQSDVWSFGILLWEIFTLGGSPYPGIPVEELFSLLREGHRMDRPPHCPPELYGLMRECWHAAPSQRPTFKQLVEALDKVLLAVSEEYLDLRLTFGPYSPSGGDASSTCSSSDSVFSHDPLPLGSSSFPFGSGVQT

[6] = target: Serine/threonine-protein kinase Nek6 (Homo sapiens) (UniProt Q9HC98); assay: Inhibition of NEK6 (unknown origin) assessed as remaining activity at 1 uM by Kinome scan method relative to control
[7] = test system: Phosphatidylinositol 4,5-bisphosphate 3-kinase catalytic subunit alpha isoform (Homo sapiens), P42336 [E545A]; assay: Inhibition of PIK3CA E545A mutant (unknown origin) assessed as remaining activity at 1 uM by Kinome scan method relative to control
[8] = target: Ribosomal protein S6 kinase alpha-6 (Homo sapiens) (UniProt Q9UK32); assay: Inhibition of C-terminal kinase domain RPS6KA6 (unknown origin) assessed as remaining activity at 1 uM by Kinome scan method relative to control
[9] = test system: Tyrosine-protein kinase ABL1 (Homo sapiens), P00519 [M351T]; assay: Inhibition of human ABL1 M351T mutant assessed as residual activity at 1 uM using Poly(Ala,Glu,Lys,Tyr)6:2:5:1 as substrate in presence of 33P-ATP by ProQinase assay relative to control
[10] = target: T1, Serine/threonine-protein kinase BRSK1 (Homo sapiens) (UniProt Q8TDC3); assay: Inhibition of human BRSK1 assessed as residual activity at 1 uM using RBER-CHKtide as substrate in presence of 33P-ATP by ProQinase assay relative to control
T1 sequence (whole entry): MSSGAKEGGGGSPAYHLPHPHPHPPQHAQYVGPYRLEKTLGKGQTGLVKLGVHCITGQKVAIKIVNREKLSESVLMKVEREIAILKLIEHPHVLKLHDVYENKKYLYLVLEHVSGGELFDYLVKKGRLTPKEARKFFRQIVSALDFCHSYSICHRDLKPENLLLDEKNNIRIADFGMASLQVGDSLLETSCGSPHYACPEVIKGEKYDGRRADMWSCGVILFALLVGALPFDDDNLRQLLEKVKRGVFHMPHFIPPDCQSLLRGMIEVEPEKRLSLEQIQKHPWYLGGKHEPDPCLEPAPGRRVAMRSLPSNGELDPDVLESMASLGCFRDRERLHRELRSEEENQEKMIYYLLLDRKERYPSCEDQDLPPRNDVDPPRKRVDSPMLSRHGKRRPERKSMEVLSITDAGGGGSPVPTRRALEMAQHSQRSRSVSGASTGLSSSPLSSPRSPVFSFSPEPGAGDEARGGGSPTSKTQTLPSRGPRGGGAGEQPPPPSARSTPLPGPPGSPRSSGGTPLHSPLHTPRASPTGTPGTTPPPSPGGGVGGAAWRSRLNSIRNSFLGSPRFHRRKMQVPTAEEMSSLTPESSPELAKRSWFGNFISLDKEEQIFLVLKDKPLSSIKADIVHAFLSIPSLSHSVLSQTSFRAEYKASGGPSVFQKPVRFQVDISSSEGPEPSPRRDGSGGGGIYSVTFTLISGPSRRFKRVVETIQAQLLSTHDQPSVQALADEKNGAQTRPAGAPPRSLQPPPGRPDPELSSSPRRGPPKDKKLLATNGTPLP

[11] = target: Calcium/calmodulin-dependent protein kinase kinase 2 (Homo sapiens) (UniProt Q96RR4); assay: Inhibition of human CAMKK2 assessed as residual activity at 1 uM using RBER-GSK3 as substrate in presence of 33P-ATP by ProQinase assay relative to control
Calcium/calmodulin-dependent protein kinase kinase 2 (Homo sapiens), sequence (Q96RR4 2-588 limits assumed): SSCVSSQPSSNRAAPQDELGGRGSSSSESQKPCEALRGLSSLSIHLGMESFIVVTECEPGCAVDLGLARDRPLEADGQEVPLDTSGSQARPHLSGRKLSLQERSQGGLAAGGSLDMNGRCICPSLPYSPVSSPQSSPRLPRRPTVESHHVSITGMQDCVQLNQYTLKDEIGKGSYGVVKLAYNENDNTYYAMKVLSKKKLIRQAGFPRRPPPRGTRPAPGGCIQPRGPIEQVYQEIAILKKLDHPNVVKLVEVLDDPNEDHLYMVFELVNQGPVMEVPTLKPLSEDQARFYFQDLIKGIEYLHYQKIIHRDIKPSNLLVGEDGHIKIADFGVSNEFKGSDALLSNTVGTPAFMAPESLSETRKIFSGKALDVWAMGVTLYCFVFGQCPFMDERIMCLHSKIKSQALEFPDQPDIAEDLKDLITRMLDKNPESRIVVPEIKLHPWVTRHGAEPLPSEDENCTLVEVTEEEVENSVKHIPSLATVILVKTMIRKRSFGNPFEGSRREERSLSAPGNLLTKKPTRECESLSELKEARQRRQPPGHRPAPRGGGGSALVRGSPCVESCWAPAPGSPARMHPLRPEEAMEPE

[12] = target: CDK3/Cyclin E (Homo sapiens) (UniProt P24864+Q00526); assay: Inhibition of human CDK3/CyclinE1 assessed as residual activity at 1 uM using RBER-CHKtide as substrate in presence of 33P-ATP by ProQinase assay relative to control; format: protein-complex assay
[13] = target: Death-associated protein kinase 3 (Homo sapiens) (UniProt O43293); assay: Inhibition of human DAPK3 assessed as residual activity at 1 uM using RBER-GSK3 as substrate in presence of 33P-ATP by ProQinase assay relative to control
Death-associated protein kinase 3 (Homo sapiens), sequence (O43293 whole entry, looked up): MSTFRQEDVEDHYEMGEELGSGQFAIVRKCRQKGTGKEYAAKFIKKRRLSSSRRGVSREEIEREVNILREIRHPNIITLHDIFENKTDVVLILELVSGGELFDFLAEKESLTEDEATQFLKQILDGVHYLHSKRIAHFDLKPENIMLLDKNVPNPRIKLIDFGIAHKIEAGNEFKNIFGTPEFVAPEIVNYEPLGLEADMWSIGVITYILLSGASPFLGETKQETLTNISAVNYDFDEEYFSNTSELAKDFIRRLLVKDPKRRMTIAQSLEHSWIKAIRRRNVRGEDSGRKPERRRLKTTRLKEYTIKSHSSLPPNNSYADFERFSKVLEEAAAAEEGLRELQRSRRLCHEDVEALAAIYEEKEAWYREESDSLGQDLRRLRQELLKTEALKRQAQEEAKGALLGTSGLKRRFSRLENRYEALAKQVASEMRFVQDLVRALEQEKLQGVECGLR

[14] = test system: Epidermal growth factor receptor (Homo sapiens), P00533 [UNDEFINED MUTATION]; assay: Inhibition of human EGFR d747-752/P753S mutant assessed as residual activity at 1 uM using PolyEY as substrate in presence of 33P-ATP by ProQinase assay relative to control
[15] = target: Mitogen-activated protein kinase 3 (Homo sapiens) (UniProt P27361); assay: Inhibition of human ERK1 assessed as residual activity at 1 uM using RBER-CHKtide as substrate in presence of 33P-ATP by ProQinase assay relative to control
[16] = test system: Mast/stem cell growth factor receptor Kit (Homo sapiens), P10721 [T670I]; assay: Inhibition of human KIT T670I mutant assessed as residual activity at 1 uM using polyEY as substrate in presence of 33P-ATP by ProQinase assay relative to control
[17] = target: Leucine-rich repeat serine/threonine-protein kinase 2 (Homo sapiens) (UniProt Q5S007); assay: Inhibition of human LRRK2 assessed as residual activity at 1 uM using RBER-GSK3(14-27) as substrate in presence of 33P-ATP by ProQinase assay relative to control
[18] = target: MAP kinase-activated protein kinase 2 (Homo sapiens) (UniProt P49137); assay: Inhibition of human MAPKAPK2 assessed as residual activity at 1 uM using RBER-CHKtide as substrate in presence of 33P-ATP by ProQinase assay relative to control
MAP kinase-activated protein kinase 2 (Homo sapiens), sequence (P49137 whole entry, looked up): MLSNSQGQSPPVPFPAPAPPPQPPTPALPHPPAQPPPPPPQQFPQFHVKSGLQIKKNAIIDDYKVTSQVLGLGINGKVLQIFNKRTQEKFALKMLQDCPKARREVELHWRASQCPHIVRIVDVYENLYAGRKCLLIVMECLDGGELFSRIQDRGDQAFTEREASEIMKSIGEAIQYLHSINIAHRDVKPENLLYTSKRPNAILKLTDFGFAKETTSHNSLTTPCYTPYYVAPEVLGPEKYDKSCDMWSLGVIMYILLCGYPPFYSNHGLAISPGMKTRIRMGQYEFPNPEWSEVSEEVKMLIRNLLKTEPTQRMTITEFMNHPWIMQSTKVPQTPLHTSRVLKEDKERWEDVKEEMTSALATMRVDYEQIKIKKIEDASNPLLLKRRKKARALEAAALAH

[19] = target: cAMP-dependent protein kinase catalytic subunit PRKX (Homo sapiens) (UniProt P51817); assay: Inhibition of human PRKX assessed as residual activity at 1 uM using RBER-GSK3(14-27) as substrate in presence of 33P-ATP by ProQinase assay relative to control
cAMP-dependent protein kinase catalytic subunit PRKX (Homo sapiens), sequence (P51817 whole entry): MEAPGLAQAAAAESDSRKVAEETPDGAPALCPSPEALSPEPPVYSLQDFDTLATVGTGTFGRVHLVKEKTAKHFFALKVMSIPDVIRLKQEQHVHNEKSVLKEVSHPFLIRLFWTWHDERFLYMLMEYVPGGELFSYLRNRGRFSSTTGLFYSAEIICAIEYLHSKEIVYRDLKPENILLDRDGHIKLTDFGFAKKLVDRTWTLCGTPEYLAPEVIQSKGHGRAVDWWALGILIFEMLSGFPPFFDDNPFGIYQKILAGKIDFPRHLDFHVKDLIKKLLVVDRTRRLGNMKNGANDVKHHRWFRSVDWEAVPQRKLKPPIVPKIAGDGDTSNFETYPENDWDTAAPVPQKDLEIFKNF

[20] = target: BDNF/NT-3 growth factors receptor (Homo sapiens) (UniProt Q16620); assay: Inhibition of human TRKB assessed as residual activity at 1 uM using polyEY as substrate in presence of 33P-ATP by ProQinase assay relative to control
Mus musculus = assay: In vivo anti-inflammatory activity in Gal/LPS induced mouse assessed as inhibition in TNF-alpha release at 3 mg/kg, po administered for 1 hrs relative to control; format: functional

With `O=C1c2ccc(Nc3ccc(F)cc3F)cc2CCc2ccc(OC[C@H](O)CO)cc21` [Skepinone-L] the Activity [1] was 100%, the Activity [2] was 100% and the Activity [3] was 98%. It also gave an Activity [4] of 89%, an Activity [5] of 98% and an Activity [6] of 100%. For the same compound, the Activity [7] was 100%, the Activity [8] was 77% and the Activity [9] was 102%. It also gave an Activity [10] of 94%, an Activity [11] of 97% and an Activity [12] of 96%. For the same compound, the Activity [13] was 89%, the Activity [14] was 93% and the Activity [15] was 99%. For the same compound, the Activity [16] was 145%, the Activity [17] was 98% and the Activity [18] was 80%. The Activity [19] was 79%, the Activity [20] was 77% and the inhibition in vivo at 3 mg/kg (Mus musculus) was 77%.
